From patent US5008126A, “Long chain diol diesters as low calorie fat mimetics” (Nabisco Brands, Inc., priority 1989, dated 1991)

Key:
[1] = in vitro digestibility (lipase hydrolysis, TLC densitometry); assay type: in vitro ADME, porcine; conditions: pig, pancreatic lipase; in three hours; 37° C., pH 7.1 phosphate buffer with cholic acid; read-out: hydrolyzed (extent of hydrolysis by lipase)
Procedure: (§1) This example outlines the procedure for estimating the in vitro digestibility of the long chain diol diesters of this invention.
(§2) 1. Buffer: A pH 7.1 phosphate buffer is prepared by dissolving 6.8 g. KH2 PO4 in 1 L. of millipore filtered water (to yield 0.05M phosphate). Fifty mg. Ca(NO3)2 and 5.0 g. cholic acid (Na salt, an ox bile isolate from Sigma) are added to give 300 microM Ca^++ and 0.5 % cholic acid in 0.05M phosphate. The pH is adjusted to approximately 7.1 with solid NaOH. Several drops of Baker "Resi-analyzed" toluene are added to prevent bacterial growth during storage at 3°-5° C.
(§3) 2. Lipase: About 15 mg./mL commercial porcine pancreatic lipase from U.S. Biochemical Corporation is dissolved in buffer.
(§4) 3. Substrates and Standards: A 1.0 mL volumetric flask is charged with an amount of lipid substrate calculated to give a concentration of 200 nanomoles per microliter in Baker "Resi-analyzed" toluene. (The proper concentration may be approximated by doubling the molecular weight of the lipid in question, dividing by 10, and diluting to the mark; this yields about 200 nanomoles per microliter.) This preparation affords the substrate to be used in the hydrolysis reactions. […]

[2] = caloric availability by in vivo animal feeding study (body weight gain); set-up: species or system male Sprague-Dawley rats; conditions: rats, diet of 50% fort and 21% test compound, 14 days; from weight gain versus corn oil base line
From the text: This example illustrates how the novel fat mimetics of this invention are screened for caloric availability by a carefully controlled in vivo animal feeding study.
An experimental relationship between total calories ingested and animal body weight gain is established by monitoring the body weight gain associated with consumption of a nutritionally balanced diet containing varying concentrations of a reference substance such as corn oil which has a known caloric availability. Correlations between total calories ingested and body weight gain are excellent (r=0.99).
Caloric availability of an unknown substance is evaluated by substituting a specific weight of the unknown substance for the reference substance and observing the body weight gain. The gain in body weight is equated to a total number of calories using the correlation previously established for the reference data. The estimated number of calories ingested are divided by the weight of unknown substance to give the apparent calories per gram for the unknown substance. Generally speaking, in these bioavailability studies, the degree of perianal pelt soiling correlates with reduced bioavailability.
The test animals are six-week-old male Sprague-Dawley rats obtained from the Portage, Mich. facility of the Charles River Laboratories, Inc. After acclimation for 15 days, the test duration is 14 days. […]

[3] = test system: porcine pancreatic lipase; test: in vitro digestibility (lipase hydrolysis, TLC densitometry); assay type: in vitro ADME; conditions: in 10 minutes; 37° C., pH 7.1 phosphate buffer with cholic acid
Procedure: as §1, §2, §3, §4

| Structure (SMILES) | metabolised at 3 h [1] | caloric availability (kcal/gram upon being metabolized) [2] | hydrolysis by lipase (in words) [3] |
| --- | --- | --- | --- |
| CCCCCCCC/C=C\CCCCCCCC(=O)OCC(CCCCCCCCCCCC)OC(=O)CCCCCCC/C=C\CCCCCCCC (stereo not drawn) [Example 1, 1,2 Tetradecane dioleate] | ~20% | about 6.0 kcal/gram |  |
| CCCCCCCC/C=C\CCCCCCCC(=O)OCC(COC(=O)CCCCCCC/C=C\CCCCCCCC)OC(=O)CCCCCCC/C=C\CCCCCCCC [triolein, reference compound] |  |  | substantially hydrolyzed |
